Data taken from PMC8480759, “Inhibitors of histone deacetylase 6 based on a novel 3-hydroxy-isoxazole zinc binding group” (Journal of Enzyme Inhibition and Medicinal Chemistry, 2021).

How the values were obtained:
[1] = Storage stability at solid state; type: physicochemical; settings: room temperature and −20 °C
From the text: In a recent study, we described the effect of different linker chemotypes on the potency and selectivity of a series of HDACi carrying a hydroxamate ZBG[6]. […] Being constituted by a small heteroaromatic ring with hydrogen bond acceptor and donor atoms, we hypothesised that the 3-hydroxy-isoxazole moiety could satisfy the pharmacophore requirements necessary for the coordination of the catalytic zinc ion of HDAC6. Therefore, in this work we investigated a series of 3-hydroxy-isoxazole derivatives bearing different aromatic or heteroaromatic linkers and various cap groups.

HDAC6 [2] = molecular target: T1, HDAC6 (Homo sapiens, UniProt Q9UBN7); assay: In vitro HDAC6 fluorogenic enzymatic assay; type: biochemical; design: purchased BPS Bioscience #50076 (Fluorogenic Assay Kit); settings: for IC50: recombinant human HDAC6, dose-response 300 µM to 135 nM; for HDAC6 activity at the highest tested concentration: 300 µM, remaining enzyme activity, called inactive
T1 sequence (Q9UBN7 1-1215): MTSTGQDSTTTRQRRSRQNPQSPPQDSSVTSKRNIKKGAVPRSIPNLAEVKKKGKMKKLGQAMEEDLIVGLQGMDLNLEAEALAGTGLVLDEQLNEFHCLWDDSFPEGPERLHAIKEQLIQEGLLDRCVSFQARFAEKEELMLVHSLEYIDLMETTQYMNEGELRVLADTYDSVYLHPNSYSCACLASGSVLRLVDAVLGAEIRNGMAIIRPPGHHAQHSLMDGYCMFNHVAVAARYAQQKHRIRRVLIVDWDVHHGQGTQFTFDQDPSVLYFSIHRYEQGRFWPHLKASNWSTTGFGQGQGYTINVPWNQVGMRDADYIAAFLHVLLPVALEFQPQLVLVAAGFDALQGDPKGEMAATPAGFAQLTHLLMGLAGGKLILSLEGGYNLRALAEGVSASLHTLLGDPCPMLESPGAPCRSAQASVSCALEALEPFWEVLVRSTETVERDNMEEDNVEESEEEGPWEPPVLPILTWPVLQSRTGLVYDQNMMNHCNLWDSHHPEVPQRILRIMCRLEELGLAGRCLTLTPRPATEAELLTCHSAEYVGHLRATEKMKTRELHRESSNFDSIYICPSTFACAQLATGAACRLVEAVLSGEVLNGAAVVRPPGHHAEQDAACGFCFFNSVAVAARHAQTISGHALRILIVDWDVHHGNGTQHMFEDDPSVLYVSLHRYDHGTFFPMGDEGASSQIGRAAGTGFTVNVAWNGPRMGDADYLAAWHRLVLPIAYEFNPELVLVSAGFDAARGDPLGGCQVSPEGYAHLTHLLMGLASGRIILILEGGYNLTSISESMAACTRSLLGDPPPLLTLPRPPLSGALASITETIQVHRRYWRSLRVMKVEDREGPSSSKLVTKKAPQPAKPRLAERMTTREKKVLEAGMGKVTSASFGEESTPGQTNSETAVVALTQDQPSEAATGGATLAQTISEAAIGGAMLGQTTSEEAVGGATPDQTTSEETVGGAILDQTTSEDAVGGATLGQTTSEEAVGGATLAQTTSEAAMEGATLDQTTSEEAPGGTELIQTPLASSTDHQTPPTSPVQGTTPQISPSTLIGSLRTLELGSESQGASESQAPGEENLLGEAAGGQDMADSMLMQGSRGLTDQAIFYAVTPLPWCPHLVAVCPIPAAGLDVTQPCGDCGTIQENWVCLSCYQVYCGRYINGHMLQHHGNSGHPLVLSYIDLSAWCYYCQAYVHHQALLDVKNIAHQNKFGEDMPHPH

HDAC6 [3] = system: HDAC6; design: method as in ChEMBL (accessed on May 29th, 2020); settings: ChEMBL ligands most similar to compound 13; ref ChEMBL (accessed on May 29th, 2020); cited from earlier work
[4] = system: acetylation levels of histone H3 (HDAC1 target) in DU145 cells; assay: Western blot of histone H3 acetylation in DU145 cells; type: cell-based, human; settings: 24 h, 10 µM
Method: (§1) The results corroborate the inhibitory activity of 17, 23, 25 and 27 at concentrations lower than 10 µM. […] HDACs contribution to CRPC is known[20] and the possibility to arrest CRPC proliferation by acting on HDAC targets is expanding in the scientific literature[21]^,[22]. After administration of the selected compounds for 24 h at 10 µM concentration, the effect on the acetylation levels of histone H3 and α-tubulin (respectively, HDAC1 and HDAC6 targets) was investigated. […] Lastly, in the same cell line, the anti-proliferative effect was measured in dose and time dependent manner (Figure S4).
Figure S3. Western blotting analysis of the tested and reference compounds SAHA and Tubastatin A on acetylation levels of histone H3 and α-tubulin in DU145 cells. GAPDH and H4 were used as a loading control. Densitometric values were analyzed using ImageJ Software and are reported on the top of bands as the ratio between loading control and acetylated target.
(1 picture or pasted object on this page, not shown here) […]
1.4 Western blot analysis
The prostate cancer cell line DU145 (ATCC) was grown in RPMI medium (Euroclone, Milan, Italy) with 10% fetal bovine serum (Euroclone), 2 mM L-glutamine (Euroclone), and antibiotics (100 U/mL penicillin, […] streptomycin) (Euroclone). Cells were stimulated with drugs for […]
Total Protein Extraction and western blot
After the induction with the test compounds at the indicated times and concentrations, DU145 cells were then harvested, washed with phosphate-buffered saline (PBS) (Euroclone), and lysed for 15 min at 4 °C in lysis extraction buffer with protease and phosphatase inhibitors (50 mM Tris -HCl pH 8.0, 150 mM NaCl, 1% NP40, 10 mM sodium fluoride, 0.1 mM sodium orthovanadate, […] phenylmethylsulfonyl fluoride 58 (PMSF), 20 g/mL aprotinin, […] leupeptin, […] antipain, 10 mM p -nitrophenyl phosphate, […] pepstatin A and 20 nM okada ic acid). Cells were vortexed then centrifuged at 13000 rpm for 30 min at 4 °C. Bradford assay (Biorad, Italy) was used to quantify protein concentration. […] The immune complexes were first detected with horseradish peroxidase-conjugated species-specific secondary antiserum (Bio-Rad Laboratories, Milan, Italy), and then by an enhanced chemiluminescence reaction (Bio-Rad Laboratories, Milan, Italy). […]
were harvested and washed twice with cold 1× PBS and lysed in Triton extraction buffer (TEB; PBS containing 0.5% Triton X 100 (v/v), 2 mM PMSF, and 0.02% (w/v) NaN3) for 10 min on ice, with gentle stirring. […] The samples were then centrifuged at 2000 rpm for 10 min at 4 °C; the concentration of protein in the supernatant was determined […]
using a Bradford assay (Bio-Rad, CA, USA). […] Semi-quantitative analysis was performed using ImageJ software. […]

HDAC6 [5] = molecular target: T1, HDAC6; assay: HDAC6 assay with acetylated p53 peptide (residues 379–382, RHKKAc-AMC) as substrate; type: biochemical
DU145 cells = assay: Anti-proliferative assay (MTT cell viability); type: cell-based, human; settings: for effect on proliferation rate of DU145 cells: 50 µM, MTT, 24, 48, 72 h
Method: as §1
Figure S4. Cell viability assay (MTT) of the tested compounds in human prostate cancer cell lines (DU145). Cells were treated with 4 increasing concentrations (1, 5, 10, and 50 µM) of tested compounds, monitored at 24, 48, and 72 hours and tested with SAHA and Tubastatin A as reference compounds. Data are expressed as mean ± SEM. […]
1.5 Anti-proliferative assay
Cell viability was determined on DU145 cell line using Thiazolyl Blue Tetrazolium Bromide [3-(4,5-dimethylthiazol-2-yl)-2,5-diphenyltetrazolium bromide] (MTT; Sigma-Aldrich) assay after treatment with new compounds at indicated concentrations. A total of 2 × 10^4 cells/well were plated in a 96-well plate and treated, in duplicates, with new compounds at different concentrations for 24, 48, and 72 hours. Absorbance was read at a wavelength of 570 nm with a TECAN M-200 reader (Tecan, Männedorf, Switzerland).

Compound	IC50 (HDAC6 [2])	IC50 (HDAC6 [3])	also measured
O=c1cc(-c2ccccc2)o[nH]1 [Compound 13, 3-hydroxy-5-phenyl-isoxazole]	98.1 µM		stability on storage [1]: stable
O=C(NO)C1CCCCC1 [CHEMBL2333345]		0.376 µM	
O=C(O)c1cc(-c2ccccc2)on1 [Compound 29, 5-phenylisoxazole-3-carboxylic acid]	> 300 µM		HDAC6 activity at the highest tested concentration (HDAC6 [2]): more than 55%; HDAC6 inhibition (in words) (HDAC6 [2]; in vitro assays, Table 1): inactive
O=C(NO)C1=CCCC1 [CHEMBL2333346]		0.03 µM	
Oc1cc(-c2ccc(OCc3ccc(Cl)c(Cl)c3)cc2)on1 [Compound 27]	8.2 µM		effect on acetylation levels of histone H3 [4]: no effect; concentration showing inhibitory activity on HDAC6 (HDAC6 [5]): below 10 µM; effect on proliferation rate of DU145 cells (DU145 cells): reduced the proliferation rate; anti-proliferative activity at the lowest concentrations (DU145 cells; DU145, late phases, lowest concentrations (tested 1, 5, 10, 50 µM)): exerted anti-proliferative activity
O=[N+]([O-])c1ccc(-c2cc(O)no2)cc1 [Compound 18]	16.4 µM		
Oc1cc(-c2ccco2)on1 [Compound 26]	> 100 µM		
Oc1cc(-c2cccc(C(F)(F)F)c2)on1 [Compound 14]	> 300 µM		
COc1ccc(-c2cc(O)no2)cc1 [Compound 16]	> 300 µM		
Oc1cc(-c2ccc(Br)o2)on1 [Compound 21]	29.6 µM		
CNc1ccc(C(=O)NO)cc1 [CHEMBL3415449]		1.77 µM	
Oc1cc(-c2cccc3ccccc23)on1 [Compound 20]	> 300 µM		HDAC6 activity at the highest tested concentration (HDAC6 [2]): more than 55%
Oc1cc(-c2ccccc2Cl)on1 [Compound 15]	> 300 µM		
Cc1ccc(-c2cc(O)no2)s1 [Compound 24]	21.9 µM		
Oc1cc(-c2cccc(Br)c2)on1 [Compound 22]	73.3 µM		
O=C(NO)C1=CCCCC1 [CHEMBL2333344]		0.012 µM	
Oc1cc(-c2ccc(OCc3ccccc3)cc2)on1 [Compound 17]	1.3 µM		effect on acetylation levels of histone H3 [4]: no effect; concentration showing inhibitory activity on HDAC6 (HDAC6 [5]): below 10 µM; effect on proliferation rate of DU145 cells (DU145 cells): reduced the proliferation rate
Cc1cccc(C(=O)NO)c1 [CHEMBL2381522]		0.65 µM	
O=C(NO)c1ccccc1 [CHEMBL16300]		0.115 µM	
O=C(C#Cc1ccccc1)NO [Compound 12, N-hydroxy-3-phenyl-propiolamide]			stability on storage [1]: converted into 13 over time; melting point: 174 to 176 °C
Oc1cc(-c2ccc(Br)cn2)on1 [Compound 28]	82.3 µM		
Oc1cc(-c2ccc3ccccc3c2)on1 [Compound 19]	> 300 µM		HDAC6 activity at the highest tested concentration (HDAC6 [2]): more than 55%
CNC(=O)c1ccc(C(=O)NO)cc1 [CHEMBL2333343]		0.028 µM	
